Literature values in patent US20250345336A1, “ALLOPURINOL ORAL SUSPENSION” (Extrovis AG, priority 2024, published 2025).

For `Oc1ncnc2[nH]ncc12` [Allopurinol, 1,5-dihydro-4H-pyrazolo [3,4-d] pyrimidin-4-one], the aqueous solubility is given as “poor aqueous solubility”.
